Measurements: US7566727B2, “2-(1-aza-bicyclo[2.2.2]oct-3-yl)-2,3-dihydro-isoindole-1-one/5,6-dihydro-furo[2,3-c] pyrrol-4-one derivative ligands for alpha 7 nicotinic acetylcholine receptor” (priority 2004, dated 2009)

Target: α7 nAChR subtype (Rattus norvegicus, UniProt Q05941)
Assay: Test A: 125I-α-Bungarotoxin binding to rat hippocampal membranes (affinity at α7 nAChR subtype)
Settings: for Ki: [125I]α-BTX displacement, rat hippocampal membranes
Experimental: Test A—Assay for Affinity at α7 nAChR subtype
125I-α-Bungarotoxin (BTX) binding to rat hippocampal membranes. Rat hippocampi were homogenized in 20 volumes of cold homogenization buffer (HB: concentrations of constituents (mM): tris(hydroxymethyl)aminomethane 50; MgCl2 1; NaCl 120; KCl 5: pH 7.4). The homogenate was centrifuged for 5 minutes at 1000 g, the supernatant was saved and the pellet re-extracted. The pooled supernatants were centrifuged for 20 minutes at 12,000 g, washed, and re-suspended in HB. Membranes (30-80 μg) were incubated with 5 nM [^125I] α-BTX, 1 mg/mL BSA (bovine serum albumin), test drug, and either 2 mM CaCl2 or 0.5 mM EGTA [ethylene glycol-bis(β-aminoethylether)] for 2 hours at 21° C., and then filtered and washed 4 times over Whatman glass fibre filters (thickness C) using a Brandel cell harvester.
Binding data analysis for Tests A and B
IC50 values and pseudo Hill coefficients (nH) were calculated using the non-linear curve fitting program ALLFIT (DeLean A, Munson P J and Rodbard D (1977) Am. J. Physiol., 235:E97-E102). […] Ki values were determined using 6 or more drug concentrations.

Sequence of α7 nAChR subtype (Q05941 23-502): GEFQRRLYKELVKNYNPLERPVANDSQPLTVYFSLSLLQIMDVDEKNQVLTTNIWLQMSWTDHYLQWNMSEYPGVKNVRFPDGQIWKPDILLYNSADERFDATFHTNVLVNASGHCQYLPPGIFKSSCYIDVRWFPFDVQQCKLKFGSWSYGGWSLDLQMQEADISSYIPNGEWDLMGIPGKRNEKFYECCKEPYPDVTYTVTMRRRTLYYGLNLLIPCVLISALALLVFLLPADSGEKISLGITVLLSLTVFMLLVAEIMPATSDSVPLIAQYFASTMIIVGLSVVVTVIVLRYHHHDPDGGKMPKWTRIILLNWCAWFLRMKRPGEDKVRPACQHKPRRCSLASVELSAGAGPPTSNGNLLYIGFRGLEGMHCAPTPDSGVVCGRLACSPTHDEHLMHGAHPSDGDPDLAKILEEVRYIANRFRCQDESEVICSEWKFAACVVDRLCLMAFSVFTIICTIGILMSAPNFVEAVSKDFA

Molecule	Kd (read-out: KD of radioligand (saturation curve, one site model)) [nM]	Ki [nM]
125I-α-Bungarotoxin [[^125I]-α-BTX, reference compound]	1.67	
COc1ccc(-c2ccc3c(c2)C(=O)N([C@H]2CN4CCC2CC4)C3)cc1 [Example 28, 2-(R)-1-Aza-bicyclo[2.2.2]oct-3-yl-6-(4-methoxy-phenyl)-2,3-dihydro-isoindol-1-one]		77
O=C1c2cc(Cl)ccc2CN1[C@H]1CN2CCC1CC2 [Example 29, 2-(R)-1-Aza-bicyclo[2.2.2]oct-3-yl-6-chloro-2,3-dihydro-isoindol-1-one]		289
COc1cccc(-c2ccc3c(c2)C(=O)N([C@H]2CN4CCC2CC4)C3)c1 [Example 30, 2-(R)-1-Aza-bicyclo[2.2.2]oct-3-yl-6-(3-methoxy-phenyl)-2,3-dihydro-isoindol-1-one]		21.8
O=C1c2cc(-c3cccc(Cl)c3)ccc2CN1[C@H]1CN2CCC1CC2 [Example 31, 2-(R)-1-Aza-bicyclo[2.2.2]oct-3-yl-6-(3-chloro-phenyl)-2,3-dihydro-isoindol-1-one]		45.4
O=C1c2cc(-c3ccc(Cl)cc3)ccc2CN1[C@H]1CN2CCC1CC2 [Example 32, 2-(R)-1-Aza-bicyclo[2.2.2]oct-3-yl-6-(4-chloro-phenyl)-2,3-dihydro-isoindol-1-one]		90
O=C1c2cc(-c3cccc4cccnc34)ccc2CN1[C@H]1CN2CCC1CC2 [Example 33, 2-(R)-1-Aza-bicyclo[2.2.2]oct-3-yl-6-quinolin-8-yl-2,3-dihydro-isoindol-1-one]		90
O=C1c2cc(-c3ccc4c(c3)OCO4)ccc2CN1[C@H]1CN2CCC1CC2 [Example 34, 2-(R)-1-Aza-bicyclo[2.2.2]oct-3-yl-6-benzo[1,3]dioxol-5-yl-2,3-dihydro-isoindol-1-one]		37
O=C1c2cc(-c3ccccc3Cl)ccc2CN1[C@H]1CN2CCC1CC2 [Example 35, 2-(R)-1-Aza-bicyclo[2.2.2]oct-3-yl-6-(2-chloro-phenyl)-2,3-dihydro-isoindol-1-one]		6.3
COc1ccccc1-c1ccc2c(c1)C(=O)N([C@H]1CN3CCC1CC3)C2 [Example 36, 2-(R)-1-Aza-bicyclo[2.2.2]oct-3-yl-6-(2-methoxy-phenyl)-2,3-dihydro-isoindol-1-one]		24
CC(=O)Nc1cccc(-c2ccc3c(c2)C(=O)N([C@H]2CN4CCC2CC4)C3)c1 [Example 37, N-[3-((R)-2-1-Aza-bicyclo[2.2.2]oct-3-yl-3-oxo-2,3-dihydro-1H-isoindol-5-yl)-phenyl]-acetamide]		7
CN1CCN(c2ccc3c(c2)C(=O)N([C@H]2CN4CCC2CC4)C3)CC1 [Example 38, 2-(R)-1-Aza-bicyclo[2.2.2]oct-3-yl-6-(4-methyl-piperazin-1-yl)-2,3-dihydro-isoindol-1-one]		424
O=C1c2cc(N3CCOCC3)ccc2CN1[C@H]1CN2CCC1CC2 [Example 39, 2-(R)-1-Aza-bicyclo[2.2.2]oct-3-yl-6-morpholin-4-yl-2,3-dihydro-isoindol-1-one]		421
CN(C)C(=O)c1ccc(-c2ccc3c(c2)C(=O)N([C@H]2CN4CCC2CC4)C3)cc1 [Example 40, 4-((R)-2-1-Aza-bicyclo[2.2.2]oct-3-yl-3-oxo-2,3-dihydro-1H-isoindol-5-yl)-N,N-dimethyl-benzamide]		353
O=C1c2cc(-c3ccc4ncccc4c3)ccc2CN1[C@H]1CN2CCC1CC2 [Example 41, 2-(R)-1-Aza-bicyclo[2.2.2]oct-3-yl-6-quinolin-6-yl-2,3-dihydro-isoindol-1-one]		329
O=C1c2cc(-c3cccc4ncccc34)ccc2CN1[C@H]1CN2CCC1CC2 [Example 42, 2-(R)-1-Aza-bicyclo[2.2.2]oct-3-yl-6-quinolin-5-yl-2,3-dihydro-isoindol-1-one]		89.6
CS(=O)(=O)c1cccc(-c2ccc3c(c2)C(=O)N([C@H]2CN4CCC2CC4)C3)c1 [Example 43, 2-(R)-1-Aza-bicyclo[2.2.2]oct-3-yl-6-(3-methanesulfonyl-phenyl)-2,3-dihydro-isoindol-1-one]		94
